One may read the IC50 as the midpoint of a concentration-inhibition curve.

In test [1] the target is P-selectin. Description: Inhibitory test on the binding of P-selectin to sialyl Le^X (selectin-IgG chimera). Conditions: inhibition of P-selectin IgG chimera binding to sialyl Le^X-pentaceramide. As for the experimental part: Inhibitory test on the binding of P-selectin to sialyl Le^X :
(§1) The experiment was carried out according to the method using selectin-IgG chimera, which was reported by Foxall, C. et al. (J. Cell Biol., 117, 895-902 (1992)).
(§2) Sialyl Le^X -pentaceramide was dissolved in 50% methanol in distilled water, and the solution was put into a 96-well plate in an amount of 100 pmol/well. The plate was allowed to stand at room temperature overnight, and the solvent therein was evaporated. The plate was washed with distilled water, and subjected to blocking with 50 mM imidazole buffer (pH 7.2) containing 5% BSA (bovine serum albumin) and 1 mM calcium chloride at room temperature for one hour.
(§3) Separately, to 500-fold diluted solution of each biotinylated anti-human IgG Fc and streptavidin-alkaline phosphatase conjugate with a 50 mM imidazole buffer (pH 7.2) containing 1% BSA and 1 mM calcium chloride, P-selectin IgG chimera was added to give a final concentration of 40 μg/ml, and the mixture was incubated at room temperature for 30 minutes to give the complex solution.
(§4) A test compound was dissolved in DMSO (except that the test compound h was dissolved in distilled water) to give 10 mM aqueous solution thereof, which was serially diluted with 50 mM imidazole buffer (pH 7.2) containing 1% BSA and 1 mM calcium chloride to give the solutions in 8 various concentrations (two-fold serial dilution from 20 μM). The test compound solution in each concentration and the above complex solution were mixed in equal volume, and the mixture was incubated at room temperature for 30 minutes to give the reaction solution.
(§5) After the blocking was completed, the blocking solution in the above plate was discarded, and the plate was washed with 50 mM imidazole buffer (pH 7.2), and thereto was added the above reaction solution in an amount of 50 μl/well. The plate was incubated at 37° C. for 45 minutes, and then washed three times with 50 mM imidazole buffer (pH 7.2) and washed three times with distilled water. 1M diethanolamine (pH 9.8) containing 0.01% magnesium chloride and 1 mg/ml p-nitrophenyl phosphate was put into each well in an amount of 50 μl/well, and the plate was allowed to stand for 1 to 2 hours for color development. The absorbance at 405 nm was measured, and the binding rate (%) was calculated by the following equation, based on the absorbance (X) of the wells containing a test compound at various concentrations and the absorbance (A) of the wells containing no test compound.
(§6) IC50 was evaluated by probit method from the binding rate.

Test [2] concerns the target L-selectin. Description: Inhibitory test on the binding of L-selectin to sialyl Le^X (selectin-IgG chimera). As to conditions: inhibition of L-selectin IgG chimera binding to sialyl Le^X-pentaceramide. As for the experimental part: as §1, §2, §3, §4, §5, §6
Inhibitory test on the binding of L-selectin to sialyl Le^X :
The same procedures of Experiment 1 were repeated except that L-selectin IgG chimera (40 μg/ml) was used instead of P-selectin IgG chimera (40 μg/ml).

Test [3] concerns cell infiltration. In words: Inhibitory effects on the peritoneal inflammation induced by thioglycollate (cell infiltration, MPO activity). The test is classed as in vivo, Male BALB/C mice. Conditions: 10 mg/kg, tail vein just before and one hour after induction, peritoneal exudate cells. On the procedure:
Inhibitory effects on the peritoneal inflammation induced by thioglycollate:
Male BALB/C mice (11-weeks old) were peritoneally injected with 3% thioglycollate medium (1 ml) to induce the inflammation. In the non-inflammation group, saline was peritoneally injected to the mice. Two hours thereafter, the mice were killed with […], and the peritoneal cavity was washed with a phosphate buffered saline containing 0.1% BSA, 0.5 mM EDTA, 10 U/ml heparin to collect the exudate cells. The red blood cells were lysed, and the exudate cells were lysed in 50 mM potassium phosphate buffer containing 0.5% hexadecyltrimethylammonium bromide. The MPO activity in the supernatant was measured according to the Bradley's method (see the above reference).
The test compound was dissolved in 0.0012M arginine-containing saline solution so as to be a concentration of 1 mg/ml. The test compound solution was injected to the mice at the tail vein in a dosage volume of 0.1 ml/10 g of the body weight, at just before and one hour after the induction of inflammation response (the treated group). In the control group, saline solution was injected to the mice.
The cell infiltration inhibitory rate was calculated in the same manner as in Experiment 4, by the equation 3.

With `CCCCCCCCCCCCCCC(CCCCCCCCCCCCCC)C(=O)N[C@H](CO[C@@H]1O[C@@H](C)[C@@H](O)[C@@H](O)[C@@H]1O)C(=O)N[C@@H](CCC(=O)O)C(=O)NC` [compound k, [N-(2-tetradecylhexadecanoyl)-O-(α-L-fucopyranosyl)-D-seryl]-L-glutamic acid 1-methylamide], the IC50 stood at 700 nM in test [1] and 9400 nM in test [2]. Also, the “Cell infiltration inhibitory rate” value in test [3] worked out at 37%.

With `CCCCCCCCCCCCCCC(CCCCCCCCCCCCCC)C(=O)N[C@@H](CO[C@@H]1O[C@@H](C)[C@@H](O)[C@@H](O)[C@@H]1O)C(=O)N[C@H](CCC(=O)O)C(=O)NC` [compound j, [N-(2-tetradecylhexadecanoyl)-O-(α-L-fucopyranosyl)-L-seryl]-D-glutamic acid 1-methylamide], the half-inhibitory concentration (IC50) in test [1] is 500 nM; in test [2], 6000 nM.

As to `CCCCCCCCCCCCCCC(CCCCCCCCCCCCCC)C(=O)N[C@@H](CO[C@@H]1O[C@H]([C@H](C)O)[C@@H](O)[C@@H]1O)C(=O)NCCCCC(=O)O` [compound f, 5-N-[N-(2-tetradecylhexadecanoyl)-O-(α-L-fucofuranosyl)-L-seryl]aminovaleric acid], the IC50 in test [1] worked out at 1200 nM; in test [2], 2500 nM.

For `CCCCCCCCCCCCCCC(CCCCCCCCCCCCCC)C(=O)N[C@H](CO[C@@H]1O[C@H]([C@H](C)O)[C@@H](O)[C@@H]1O)C(=O)N[C@H](CCC(=O)O)C(=O)NC` [compound d, [N-(2-tetradecylhexadecanoyl)-O-(α-L-fucofuranosyl)-D-seryl]-D-glutamic acid 1-methylamide], the IC50 amounted to 200 nM in test [1] and 500 nM in test [2].

`CCCCCCCCCCCCCCC(CCCCCCCCCCCCCC)C(=O)N[C@H](CO[C@H]1O[C@@H](C)[C@@H](O)[C@@H](O)[C@@H]1O)C(=O)N[C@@H](CCC(=O)O)C(=O)NC` [compound o, [N-(2-tetradecylhexadecanoyl)-O-(β-L-fucopyranosyl)-D-seryl]-L-glutamic acid 1-methylamide]: the IC50 in test [1] is 300 nM; in test [2], 1600 nM.

Take `CCCCCCCCCCCCCCC(CCCCCCCCCCCCCC)C(=O)N[C@@H](CO[C@H]1O[C@@H](C)[C@@H](O)[C@@H](O)[C@@H]1O)C(=O)N[C@H](CCC(=O)O)C(=O)NC` [compound n, [N-(2-tetradecylhexadecanoyl)-O-(β-L-fucopyranosyl)-L-seryl]-D-glutamic acid 1-methylamide]: the values for the IC50 in test [1] and in test [2] were 300 nM and 800 nM, respectively.

Regarding `CCCCCCCCCCCCCCC(CCCCCCCCCCCCCC)C(=O)N[C@H](CS[C@@H]1O[C@@H](C)[C@@H](O)[C@@H](O)[C@@H]1O)C(=O)N[C@@H](CCC(=O)O)C(=O)NC` [compound s, [N-(2-tetradecylhexadecanoyl)-S-(α-L-fucopyranosyl)-D-cysteinyl]-L-glutamic acid 1-methylamide], the IC50 in test [1] and in test [2] was 100 nM throughout.

`CCCCCCCCCCCCCCC(CCCCCCCCCCCCCC)C(=O)N[C@@H](CO[C@@H]1O[C@H]([C@H](C)O)[C@@H](O)[C@@H]1O)C(=O)NCCCC(=O)O` [compound e, 4-N-[N-(2-tetradecylhexadecanoyl)-O-(α-L-fucofuranosyl)-L-seryl]aminobutyric acid]: the IC50 in test [1] was found to be 500 nM; in test [2], 1800 nM.

`CCCCCCCCCCCCCCC(CCCCCCCCCCCCCC)C(=O)N[C@@H](CO[C@H]1O[C@@H](C)[C@@H](O)[C@@H](O)[C@@H]1O)C(=O)N[C@@H](CCC(=O)O)C(=O)NC` [compound m, [N-(2-tetradecylhexadecanoyl)-O-(β-L-fucopyranosyl)-L-seryl]-L-glutamic acid 1-methylamide]: the values for the IC50 in test [1] and in test [2] were 600 nM and 800 nM, respectively.

In the case of `CCCCCCCCCCCCCCC(CCCCCCCCCCCCCC)C(=O)N[C@@H](CS[C@H]1O[C@@H](C)[C@@H](O)[C@@H](O)[C@@H]1O)C(=O)N[C@H](CCC(=O)O)C(=O)NC` [compound u, [N-(2-tetradecylhexadecanoyl)-S-(β-L-fucopyranosyl)-L-cysteinyl]-D-glutamic acid 1-methylamide], the IC50 in test [1] and in test [2] was 1000 nM each time.

Regarding `CCCCCCCCCCCCCCC(CCCCCCCCCCCCCC)C(=O)N[C@@H](CO[C@@H]1O[C@@H](C)[C@@H](O)[C@@H](O)[C@@H]1O)C(=O)N[C@@H](CCC(=O)O)C(=O)NC` [compound i, [N-(2-tetradecylhexadecanoyl)-O-(α-L-fucopyranosyl)-L-seryl]-L-glutamic acid 1-methylamide], the half-inhibitory concentration (IC50) in test [1] was 1900 nM; in test [2], 39000 nM.

For the molecule `CCCCCCCCCCCCCCC(CCCCCCCCCCCCCC)C(=O)N[C@@H](CS[C@@H]1O[C@@H](C)[C@@H](O)[C@@H](O)[C@@H]1O)C(=O)N[C@H](CCC(=O)O)C(=O)NC` [compound r, [N-(2-tetradecylhexadecanoyl)-S-(α-L-fucopyranosyl)-L-cysteinyl]-D-glutamic acid 1-methylamide], the IC50 is 200 nM in test [1] and 700 nM in test [2].

Source of the values: patent US5919769A, “Fucose derivatives, drugs containing the same as active ingredient, and intermediates for producing the same” (Kanebo, Ltd, priority 1995, dated 1999).
